Test results taken from patent EP2258370A1, “Treatment of malignant diseases” (Medizinische Universität Wien, priority 2009, dated 2010).

How the values were obtained:
SW620 cells = assay: SW620 human colon cancer xenograft in athymic nude mice; details: 100µg/day for 2 weeks, intraperitoneal osmotic minipump from day 8, day 22; for mean tumour weight: control 793; for Mean tumour weight (±SD): control 793 ± 328 mg
Procedure: 8 x 10^6 SW620 cells/100µl PBS were injected subcutaneously into the left flank. […] Control mice received osmotic pumps filled with Ringer's solution. All mice were sacrificed on day 22 and tumour weights were then determined.

MCF-7 cells = assay: MCF-7 human breast cancer xenograft in athymic nude mice; type: in vivo; details: intraperitoneal osmotic minipump from day 24, day 38, control 210 ± 31 mg
Procedure: On the indicated days, tumour sizes were determined with a caliper and tumour volumes calculated according to the following formula: tumour volume = [(length x width^2) x […]].
All mice were sacrificed on day 38 and tumour weights were then determined.

MCF7 (mammary carcinoma) = assay: Cell proliferation assay (WST-1); type: cell-based; details: 25 and 50 µM, 24 h, 48 h and 72 h, WST-1, Figs. 2a-f
Procedure: (§1) Rac-1 inhibitor compounds were tested in cell proliferation assays performed with following cancer cell lines: MCF7 (mammary carcinoma), SW620 (colon carcinoma), CRL 2505 (prostate carcinoma). The level of proliferation was measured at 24 hours (h), 48 h and 72 h after in vitro induction of compounds. Two different concentrations of compounds were tested for each cell line (25 and 50 µM, see Figs. 2a-f; the asteriks indicates significant change versus control group (no compound induction) at all incubation points (p<0.02)).
(§2) The proliferation assay was performed with Cell Proliferation Reagent WST-1 (Roche Cat. No. 1644 807). The cells were cultured 2 x 10^4 cells/well in microplates (96 wells, flat bottom). The Cell Proliferation Reagent WST-1 (10 µl/well) was added to each experimental group (Figs. 2a-f). After 4 hours of incubation (37°C) the absorbance was measured by Microplate (ELISA) reader at 450 nm optical density (OD). The reference wavelength was 620 nm.
(§3) All experimental compounds (compounds 1, 2, 3-10, 18, 53) were solved in 1% DMSO solution. Therefore, additional experimental group (1% DMSO) was used to examine proliferation activity of used cell lines in presence of 1% DMSO.
(§4) All measurements were corrected to the blank absorbance (medium with 10 µl Cell Proliferation Reagent WST-1, no cells).

SW620 (colon carcinoma) = assay: Cell proliferation assay (WST-1); type: cell-based; details: 25 and 50 µM, 24 h, 48 h and 72 h, WST-1, Figs. 2a-f
Procedure: as §1, §2, §3, §4

[1] = system: CRL 2505 (prostate carcinoma); assay: Cell proliferation assay (WST-1); type: cell-based; details: 25 and 50 µM, 24 h, 48 h and 72 h, WST-1, Figs. 2a-f
Procedure: as §1, §2, §3, §4

PC-3 = details: Rac-hyperactive prostate cancer cells; cited from earlier work

SMILES	Mean tumour weight (% of control (co)) (SW620 cells)	mean tumour weight (SW620 cells)	Mean tumour weight (±SD) (SW620 cells)	mean tumour weight (MCF-7 cells; 25µg per day)	mean tumour weight (MCF-7 cells; 50µg per day)	mean tumour weight (MCF-7 cells; 100µg per day)	inhibiting proliferation of the tumour cells (MCF7 (mammary carcinoma))	inhibiting proliferation of the tumour cells (SW620 (colon carcinoma))	inhibiting proliferation of the tumour cells [1]	proliferation, anchorage independent growth, and invasion (PC-3)
CCN(CC)CCCC(C)Nc1nc(C)cc(NCCc2c[nH]c3ccc(O)cc23)n1 (racemic) [Compound 2, 3-{2-[2-(4-Diethylamino-1-methyl-butylamino)-6-methyl-pyrimidin-4-ylamino]-ethyl}-1H-indol-5-ol]	77 % of control (co)	612 mg	612 mg	185 ± 54 mg	152 ± 70 mg	118 ± 60 mg	effective in inhibiting proliferation	effective in inhibiting proliferation	effective in inhibiting proliferation	
CCN(CC)CCCC(C)Nc1nc(C)cc(NCCc2c[nH]c3ccccc23)n1 (stereo not shown) [Compound 1, N2-(4-Diethylamino-1-methyl-butyl)-N4-[2-(1H-indol-3-yl)-ethyl]-6-methyl-pyrimidine-2,4-diamine]	74 % of control (co)	583 mg	583 ± 151 mg				effective in inhibiting proliferation	effective in inhibiting proliferation	effective in inhibiting proliferation	
CCN(CC)CCCC(C)Nc1nc(C)cc(Nc2ccc3nc(C)cc(N)c3c2)n1 (racemic) [NSC23766, N6-(2-((4-(diethylamino)-1-methylbutyl)amino)-6-methyl-4-pyrimidinyl)-2-methyl-4,6-quinolinediamine, reference compound]	107 % of control (co)	846 mg	846 ± 256 mg							able to inhibit proliferation, anchorage independent growth, and invasion
